Experimental data reported in patent US20230148251A1, “COMPOUND NUTRIENT CAPABLE OF REPAIRING DAMAGED INTESTINES OF PIGELETS AND METHOD OF USING THE SAME” (Sichuan Agricultural University, priority 2021, published 2023).

What was measured:
[1] = tested on: low-birth-weight suckling piglets; test: Arginine supplementation: growth performance of low-birth-weight suckling piglets; format: in vivo; conditions: 0.04% arginine in feed vs without
From the text: (§1) Three-day-old suckling piglets with low birth weight were used as experimental animals. They were randomly divided into two treatments, fed with 0.04% and without arginine feed. Each treatment had 8 replicates, and each replicate had 1 piglet. The test period was 21 days to investigate the growth performance of piglets.

[2] = tested on: low-birth-weight suckling piglets; test: Arginine supplementation: serum antioxidant enzyme activity and MDA content; format: in vivo; conditions: 0.04% arginine in feed vs without
From the text: as §1, with “days. After the test, the piglet serum was collected” for “days”, “antioxidant capacity” for “growth performance”, “the piglet serum.” for “piglets.”

N=C(N)NCCC[C@H](N)C(=O)O [Arginine Group, arginine]
significantly improve: daily gain of weak piglets (in words) [1] | feed intake of weak piglets (in words) [1] | antioxidant capacity of weak piglets (in words) [2]
